Patent publication US6005099A, “Glucosamine disaccharides, method for their preparation, pharmaceutical composition comprising same, and their use” (priority 1993, dated 1999)
Values after ≈ are worked out from the molar mass of the structure shown. “Also recorded” adds a separate entry of the source.

What was measured:
protease in LAL [1] = experiment: Endotoxicity, chromogenic LAL test with 0.1 mg/ml bovine serum albumin; format: biochemical, Limulus polyphemus; details: n=4 or 6
Experimental: (§1) The endotoxicity was also measured in the chromogenic test, in which the activation of a protease in LAL by LPS was measured using a chromogen (Ac-Ile-Glu-Ala-Arg-pNA; Bio Whittaker Kit No. 50-650U). The colour formation (liberation of pNA (p-nitroaniline)) was measured at 405 nm.
(§2) Samples were pre-incubated at 37° C. during 10 minutes and subsequently chromogen-comprising LAL was added. The time required for reaching an optical density of 0.2 at 405 nm was measured. The endotoxin activity was calculated in comparison to a reference curve obtained for LPS standards.
The endotoxicity of the disaccharides E, F and G was determined using the chromogenic LAL test (see infra). However, instead of using 1 mg/ml bovine serum albumin, 0.1 mg/ml has been used. The results (n=4 or 6) were obtained in two series of experiments and are shown hereafter.

[2] = system: macrophages of C57BL/6 mice; experiment: Production of TNF-α in supernatants of macrophages, ELISA; format: cell-based
Text: (§3) Bone marrow was collected from hip, femur and tibia of six week old male C57BL/6 mice. After homogenization of the marrow suspension in Dulbecco modified medium and centrifugation, the pellet was resuspended in Dulbecco modified medium and the cells were cultivated at a concentration of 4×10^5 cells per ml in the same medium supplemented with 30% supernatant of L-929 fibroblasts (a common source for colony stimulating factor 1 [CSF-1]) and 20% horse serum.
(§4) After 7 days the mature macrophages were collected and resuspended in Dulbecco modified medium comprising 5% foetal calf serum to a concentration of 7×10^6 cells per ml. This cell suspension was mixed 1:1, (v/v) with samples diluted in the same medium and used in the biological tests performed in microplates with 70,000 cells/well (incubation at 37° C. for 22 hours, 100% humidity and 8% CO2).
The concentration of TNF-α in supernatants of macrophages was determined by an ELISA test (Kit GENZYME, Factor-test mTNF-α).

[3] = system: macrophages of C57BL/6 mice; experiment: Prostaglandin E2 (PGE2) production in supernatants of macrophages, RIA; format: cell-based
Experimental: (§5) Bone marrow was collected from hip, femur and tibia of six week old male C57BL/6 mice.
as §4

NMRI mice = experiment: Acute toxicity in NMRI mice; format: in vivo; details: caudal vein, up to 100 mg/kg
Experimental: Disaccharide A was injected into the caudal vein of male and female NMRI mice (age 6-7 weeks).

[4] = system: macrophages of C57BL/6 mice; experiment: Production of interleukin-1α (IL-1α) in supernatants of macrophages, ELISA; format: cell-based
Text: as §3, §4
The concentration of IL-1α in the supernatants of macrophages was measured by an ELISA-test (Kit GENZYME, Intertest-1α).

[5] = system: macrophages of C57BL/6 mice; experiment: Production of interleukin-6 (IL-6) in supernatants of macrophages, ELISA; format: cell-based
Experimental: as §5, §4
IL-6 concentration in supernatants of macrophages was determined by an ELISA test (Kit ENDOGEN, EM-IL-6).

[6] = system: Limulus amoebocyte lysate (LAL); experiment: Endotoxicity in the limulus amoebocyte lysate (LAL) test (gelification and chromogenic); format: biochemical, Limulus polyphemus
Experimental: (§6) The endotoxicity and the biological activity of disaccharide A (example 1) and of disaccharide B (example 2) were determined and compared to that of lipopolysaccharide originating from Escherichia coli O111:B4 (Sigma, Product No. L3024), lipid A (Sigma, Product No. L5399; used as a starting material in example 4), and 3-O-deacylated lipid A originating from lipid A of Escherichia coli F583 (prepared as in the comparative example), but without purification by HPLC.
(§7) The endotoxicity was determined in the Limulus amoebocyte lysate (LAL) test. This test is based on the observation that endotoxins induce coagulation of the hemolymph of Limulus polyphemus.
(§8) In the gelification test serial dilutions of the compound to be tested were mixed with LAL 1:1, (v/v) (Haemachem Inc., sensitivity LAL 0.06 endotoxin units/ml), and the mixture was incubated for one hour at 37° C. Then gel formation was monitored by measuring the optical density at 405 nm. The last dilution which formed a gel was determined by inverting the reaction microplate. The endotoxin activity in the samples was determined by comparison with dilutions of a lipopolysaccharide standard (1 endotoxin unit=0.1 ng LPS).
The endotoxicity was also measured in the chromogenic test, in which the activation of a protease in LAL by LPS was measured using a chromogen (Ac-Ile-Glu-Ala-Arg-pNA; Bio Whittaker Kit No. 50-650U). […]

[7] = system: Limulus amoebocyte lysate (LAL); experiment: Endotoxicity, LAL gelification test; format: biochemical, Limulus polyphemus; details: ng LPS per ng product, n = 2-12
Experimental: as §6, §7, §8
(§9) The results are expressed in table 3 as: ng LPS per ng product.

[8] = system: macrophages of C57BL/6 mice; experiment: Nitric oxide (NO) production in supernatants of macrophages; format: cell-based
Experimental: as §5, §4
Nitric oxide (NO) is produced by macrophages in response to bacterial infection and in particular LPS. NO seems to have cytostatic and cytotoxic properties. NO is extremely reactive and rapidly converted by oxidation into nitrite and nitrate.
The nitrite formation was determined using the Griess test (addition of 1:1, (v/v) N-(1-naphthyl)ethylene diamine hydrochloride [1 g/l in water] and p-aminobenzenesulphonamide [10 g/l in 5% H3 PO4 ]). The nitrite concentration in supernatants of activated macrophages was calculated in comparison to NaNO2 standards.

protease in LAL [9] = experiment: Endotoxicity, chromogenic LAL test; format: biochemical, Limulus polyphemus; details: ng LPS per ng product, n = 1-10
Experimental: as §6, §7, §1, §2, §9

[10] = highest concentration tested 500 μg/ml
[11] = for lipid A and 3-O-deacylated lipid A activity relatively constant within the tested range, no maximum

## CCCCCCCCCCCC(=O)O[C@H](CCCCCCCCCCC)CC(=O)N[C@H]1[C@H](OC[C@H]2O[C@H](OP(=O)(O)O)[C@H](NC(=O)C[C@H](O)CCCCCCCCCCC)[C@@H](O)[C@@H]2O)O[C@H](CO)[C@@H](OP(=O)(O)O)[C@@H]1O [disaccharide A, 2-Deoxy-6-O-[2-deoxy-2-[(R)-3-dodecanoyloxytetradecanoylamino]-4-O-phosphono-β-D-glucopyranosyl]-2-[(R)-3-hydroxytetradecanoylamino]-α-D-glucopyranosyl dihydrogenphosphate]
Protease in LAL [1]
  Endotoxic activity in LAL: 0.000003 ± 0.000002 mg/mg
[2]; 500 μg/ml
  TNF-α at concentration 500 μg/ml: 530 ± 139 pg/mL
[2]; Mus musculus, Macrophage, 22 h, detection limit in the order of 100 pg/ml, read-out: TNF-α: Minimum activity detected, concentration
  minimal effective concentration: 0.16 µg/mL
[2]; at the concentration of minimum activity, LPS 0.006, lipid A 0.016, 3-O-deacylated lipid A 0.016, disaccharide A 0.16 μg/ml
  TNF α at minimum activity detected: 159 ± 43 pg/mL
[2]; [10]
  TNF-α at highest concentration tested: 530 ± 139 pg/mL
[2]; macrophages of C57BL/6 mice
  TNF-α production, in words: equally or more strongly than lipid A or 3-O-deacylated lipid A
[3]; 500 μg/ml, detection limit of the order of 80 pg/ml
  PGE2 at highest concentration inducing an activity: 540 ± 65 pg/mL
[3]; LPS 6.25, 3-O-deacylated lipid A 500, disaccharide A 16 μg/ml, detection limit of the order of 80 pg/ml
  PGE2 at lowest concentration inducing an activity: 80 ± 41 pg/mL
[3]; Mus musculus, Macrophage, 22 h, detection limit of the order of 80 pg/ml, read-out: PGE2: Lowest concentration inducing an activity
  minimal effective concentration: 16 µg/mL
[3]; highest concentration used
  PGE2: Highest concentration inducing an activity: 500 µg/mL
[3]; macrophages of C57BL/6 mice
  PGE2 production, in words: significantly lower than for LPS; also recorded: more active than lipid A and 3-O-deacylated lipid A
NMRI mice
  Acute toxicity, deaths: did not induce any death
[4]; 500 μg/ml
  IL-1α at concentration 500 μg/ml: 75 ± 45 pg/mL
[4]; Mus musculus, Macrophage, 22 h, detection limit in the order of 15 pg/ml, read-out: IL-1α: Minimum activity detected, concentration
  minimal effective concentration: 16 µg/mL
[4]; at the concentration of minimum activity, LPS 1.56, lipid A 50, 3-O-deacylated lipid A 160, disaccharide A 16 μg/ml
  IL-1α at minimum activity detected: 19 ± 11 pg/mL
[4]; [10]
  IL-1α at highest concentration tested: 75 ± 45 pg/mL
[4]; macrophages of C57BL/6 mice, comparison partly at 500 μg/ml
  IL-1α production, in words: not significantly different; also recorded: at least as strong as by lipid A and 3-O-deacylated lipid A
[5]; 50% activity
  IL-6 at 50% activity: 2850 pg/mL
[5]; Mus musculus, Macrophage, 22 h, read-out: IL-6: Minimum activity, concentration
  minimal effective concentration: 0.016 µg/mL
[5]; Mus musculus, Macrophage, read-out: IL-6: 50% activity, concentration
  EC50: 1 µg/mL (≈ 0.881 µM)
[5]; at the concentration of minimum activity
  IL-6 at minimum activity: 850 ± 350 pg/mL
[5]; [11]
  IL-6: Maximum activity, concentration: 50 µg/mL
  IL-6 at maximum activity: 5700 ± 2650 pg/mL
[5]; macrophages of C57BL/6 mice
  IL-6 production, in words: significantly lower than for LPS; also recorded: more strongly than lipid A and 3-O-deacylated lipid A
[6]
  Endotoxicity in LAL, in words: lowest endotoxicity
[7]
  Endotoxic activity in LAL, gelification: 0.003 ± 0.002 ng/ng
[8]; Mus musculus, Macrophage, product concentration corresponding to 50% activity, 22 hours, 37° C.
  EC50: 0.16 µg/mL (≈ 0.141 µM)
[8]; Mus musculus, Macrophage, product concentration corresponding to induced NO activity, 22 hours, 37° C., read-out: NO production: Minimum activity (product concentration)
  minimal effective concentration: 0.016 µg/mL
[8]; extrapolated from the series dilution curve
  NO activity at 50% in nmol of NO2- /ml: 5 nmol of NO2- /ml
[8]; macrophages of C57BL/6 mice
  NO production, in words: induce NO production of the same order; also recorded: as strongly as lipid A and 3-O-deacylated lipid A
[8]; product concentration corresponding to induced NO activity, 22 hours, 37° C.
  NO production: Maximum activity (product concentration): 50 µg/mL
Protease in LAL [9]
  Endotoxic activity in LAL, chromogen: 0.0014 ± 0.0013 ng/ng
